Inconclusive results and toxic doses are left out. How the source made its calls: active means survival T/C of 150% or more; inactive means T/C below 125% in these data.
Test system: CD2F1 mice, L1210 leukemia ip, survival T/C
Assay: NCI In Vivo Anticancer Drug Screen. Data for tumor model L1210 Leukemia (intraperitoneal) in CD2F1 (CDF1) mice
Conditions: higher = longer survival
Method in brief: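 Mice carrying a transplanted tumor received test compound or vehicle alone. The value is the measurement in the treated group divided by that in the vehicle-treated control group.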

[1] = endpoint: mean survival time, dose: 100.0 mg/kg/injection, schedule: Q04DX002 (ip), vehicle: other
[2] = endpoint: mean survival time, dose: 200.0 mg/kg/injection, schedule: Q04DX002 (ip), vehicle: other
[3] = endpoint: mean survival time, dose: 100.0 mg/kg/injection, schedule: Q01DX001 (ip), vehicle: saline with Tween-80
[4] = endpoint: mean survival time, dose: 100.0 mg/kg/injection, schedule: Q04DX002 (ip), vehicle: saline with Tween-80
[5] = endpoint: mean survival time, dose: 200.0 mg/kg/injection, schedule: Q01DX001 (ip), vehicle: saline with Tween-80
[6] = endpoint: mean survival time, dose: 200.0 mg/kg/injection, schedule: Q04DX002 (ip), vehicle: saline with Tween-80
[7] = endpoint: mean survival time, dose: 400.0 mg/kg/injection, schedule: Q01DX001 (ip), vehicle: saline with Tween-80
[8] = endpoint: mean survival time, dose: 400.0 mg/kg/injection, schedule: Q04DX002 (ip), vehicle: saline with Tween-80
[9] = endpoint: mean survival time, dose: 100.0 mg/kg/injection, schedule: Q01DX001 (ip), vehicle: saline sonified
[10] = endpoint: mean survival time, dose: 200.0 mg/kg/injection, schedule: Q01DX001 (ip), vehicle: saline sonified
[11] = endpoint: mean survival time, dose: 100.0 mg/kg/injection, schedule: Q04DX003 (ip), vehicle: saline with Tween-80
[12] = endpoint: mean survival time, dose: 200.0 mg/kg/injection, schedule: Q04DX003 (ip), vehicle: saline with Tween-80
[13] = endpoint: mean survival time, dose: 400.0 mg/kg/injection, schedule: Q01DX009 (ip), vehicle: saline with Tween-80
[14] = endpoint: mean survival time, dose: 400.0 mg/kg/injection, schedule: Q04DX003 (ip), vehicle: saline with Tween-80
[15] = endpoint: mean survival time, dose: 100.0 mg/kg/injection, schedule: Q04DX003 (ip), vehicle: Klucel (hydroxypropylcellulose) (HPC)
[16] = endpoint: mean survival time, dose: 100.0 mg/kg/injection, schedule: Q01DX009 (ip), vehicle: saline with Tween-80
[17] = endpoint: mean survival time, dose: 200.0 mg/kg/injection, schedule: Q01DX009 (ip), vehicle: saline with Tween-80

Measured: T/C

CCOC(=O)C(CCC(=O)OC)(CCC(=O)OC)C(=O)OCC
inactive: endpoint: mean survival time, dose: 100.0 mg/kg/injection, schedule: Q01DX005 (ip), vehicle: other 95 % of control | endpoint: mean survival time, dose: 100.0 mg/kg/injection, schedule: Q01DX009 (ip), vehicle: other 101 % of control | [1] 88 % of control | endpoint: mean survival time, dose: 200.0 mg/kg/injection, schedule: Q01DX005 (ip), vehicle: other 91 % of control | endpoint: mean survival time, dose: 200.0 mg/kg/injection, schedule: Q01DX009 (ip), vehicle: other 97 % of control | [2] 92 % of control | endpoint: mean survival time, dose: 400.0 mg/kg/injection, schedule: Q01DX005 (ip), vehicle: other 91 % of control | endpoint: mean survival time, dose: 400.0 mg/kg/injection, schedule: Q01DX009 (ip), vehicle: other 86 % of control | endpoint: mean survival time, dose: 400.0 mg/kg/injection, schedule: Q04DX002 (ip), vehicle: other 95 % of control

O=c1[nH]cnc2snc(Cl)c12
inactive: [3] 101 % of control | [4] 92 % of control | [5] 101 % of control | [6] 92 % of control | [7] 100 % of control | [8] 87 % of control

C=CCC1OC1CCCC1CO1 (centres undefined)
inactive: [9] 94 % of control | [4] 97 % of control | [10] 90 % of control | [6] 101 % of control | endpoint: mean survival time, dose: 400.0 mg/kg/injection, schedule: Q01DX001 (ip), vehicle: saline sonified 97 % of control | [8] 97 % of control

CC(C)(C)OC(=O)CCC(NC(=O)OCc1ccccc1)C(=O)O (centres undefined)
inactive: endpoint: mean survival time, dose: 50.0 mg/kg/injection, schedule: Q04DX003 (ip), vehicle: saline with Tween-80 93 % of control | [9] 103 % of control | [11] 94 % of control | [10] 109 % of control

COC(=O)Nc1nc2ccccc2[nH]1
inactive: [3] 98 % of control | [5] 91 % of control | [7] 96 % of control | endpoint: mean survival time, dose: 500.0 mg/kg/injection, schedule: Q04DX003 (ip), vehicle: saline with Tween-80 119 % of control | endpoint: mean survival time, dose: 600.0 mg/kg/injection, schedule: Q04DX003 (ip), vehicle: saline with Tween-80 122 % of control | endpoint: mean survival time, dose: 800.0 mg/kg/injection, schedule: Q04DX003 (ip), vehicle: saline with Tween-80 111 % of control

O=P(O)(O)OC1OC(n2cnc3c(NCc4ccc(F)cc4)ncnc32)C(O)C1O (centres undefined)
inactive: endpoint: median survival time, dose: 12.5 mg/kg/injection, schedule: Q01DX005 (ip), vehicle: saline 101 % of control | endpoint: median survival time, dose: 25.0 mg/kg/injection, schedule: Q01DX005 (ip), vehicle: saline 101 % of control | endpoint: median survival time, dose: 50.0 mg/kg/injection, schedule: Q01DX005 (ip), vehicle: saline 92 % of control | endpoint: median survival time, dose: 100.0 mg/kg/injection, schedule: Q01DX005 (ip), vehicle: saline 92 % of control | endpoint: median survival time, dose: 200.0 mg/kg/injection, schedule: Q01DX005 (ip), vehicle: saline 100 % of control

CCOC(=O)c1[nH]cnc1/N=N/N(C)CCO
active: endpoint: mean survival time, dose: 264.0 mg/kg/injection, schedule: Q01DX009 (ip), vehicle: saline sonified 160 % of control | endpoint: mean survival time, dose: 400.0 mg/kg/injection, schedule: Q01DX009 (ip), vehicle: saline sonified 162 % of control | [13] 150 % of control | endpoint: mean survival time, dose: 600.0 mg/kg/injection, schedule: Q01DX009 (ip), vehicle: saline sonified 165 % of control
inactive: [11] 106 % of control | [12] 111 % of control | [14] 109 % of control

C1=C(c2ccc(-c3ccccc3)cc2)Nc2ccccc2S1
inactive: [1] 107 % of control | [2] 107 % of control

CCCCCOc1nccc(N)n1
inactive: [3] 98 % of control

CC(C)C(NC(=O)c1cccnc1)C(=O)O (centres undefined)
inactive: endpoint: mean survival time, dose: 50.0 mg/kg/injection, schedule: Q04DX002 (ip), vehicle: saline with Tween-80 100 % of control | [3] 108 % of control | [4] 100 % of control | [5] 108 % of control | [6] 104 % of control | [7] 97 % of control

Cc1ccc(NCC2(/N=C/c3ccccc3)OC(CO)C(O)C2O)cc1 (centres undefined)
inactive: endpoint: mean survival time, dose: 100.0 mg/kg/injection, schedule: Q01DX009 (ip), vehicle: Klucel (hydroxypropylcellulose) (HPC) 109 % of control | endpoint: mean survival time, dose: 177.0 mg/kg/injection, schedule: Q01DX009 (ip), vehicle: saline with Tween-80 113 % of control | endpoint: mean survival time, dose: 200.0 mg/kg/injection, schedule: Q01DX009 (ip), vehicle: Klucel (hydroxypropylcellulose) (HPC) 118 % of control | endpoint: mean survival time, dose: 266.0 mg/kg/injection, schedule: Q01DX009 (ip), vehicle: Klucel (hydroxypropylcellulose) (HPC) 120 % of control

COc1ccc(/C=N/N=C/c2ccc(OC)cc2)cc1
inactive: [15] 104 % of control | endpoint: mean survival time, dose: 200.0 mg/kg/injection, schedule: Q04DX003 (ip), vehicle: Klucel (hydroxypropylcellulose) (HPC) 100 % of control | endpoint: mean survival time, dose: 400.0 mg/kg/injection, schedule: Q04DX003 (ip), vehicle: Klucel (hydroxypropylcellulose) (HPC) 114 % of control

CN1N=C(N)c2cn(C3OC(CO)C4OC(C)(C)OC43)c3ncnc1c23 (centres undefined)
inactive: endpoint: mean survival time, dose: 12.5 mg/kg/injection, schedule: Q01DX005 (ip), vehicle: water 87 % of control | endpoint: mean survival time, dose: 25.0 mg/kg/injection, schedule: Q01DX005 (ip), vehicle: water 96 % of control | endpoint: mean survival time, dose: 50.0 mg/kg/injection, schedule: Q01DX005 (ip), vehicle: water 104 % of control | endpoint: mean survival time, dose: 100.0 mg/kg/injection, schedule: Q01DX005 (ip), vehicle: water 104 % of control

CCCCOC(=O)c1ccc(NC(=O)Nc2ccccc2OC)cc1
inactive: [16] 97 % of control | [11] 108 % of control | [17] 91 % of control | [12] 103 % of control | [13] 92 % of control | [14] 88 % of control

CCCCCCCC(=O)Nc1ncnc2c1ncn2C1OC(COC(C)=O)C(OC(C)=O)C1OC(C)=O (centres undefined)
inactive: endpoint: mean survival time, dose: 12.5 mg/kg/injection, schedule: Q01DX005 (ip), vehicle: distilled water + Tween-80 98 % of control | endpoint: mean survival time, dose: 25.0 mg/kg/injection, schedule: Q01DX005 (ip), vehicle: distilled water + Tween-80 91 % of control | endpoint: mean survival time, dose: 50.0 mg/kg/injection, schedule: Q01DX005 (ip), vehicle: distilled water + Tween-80 98 % of control | endpoint: mean survival time, dose: 100.0 mg/kg/injection, schedule: Q01DX005 (ip), vehicle: distilled water + Tween-80 94 % of control

CC(C)C1=CCC(OC(=O)N=C=Nc2ccccc2)CC1 (centres undefined)
inactive: endpoint: mean survival time, dose: 100.0 mg/kg/injection, schedule: Q01DX001 (ip), vehicle: Klucel (hydroxypropylcellulose) (HPC) 93 % of control | [4] 90 % of control | endpoint: mean survival time, dose: 200.0 mg/kg/injection, schedule: Q01DX001 (ip), vehicle: Klucel (hydroxypropylcellulose) (HPC) 91 % of control | [6] 96 % of control | endpoint: mean survival time, dose: 400.0 mg/kg/injection, schedule: Q01DX001 (ip), vehicle: Klucel (hydroxypropylcellulose) (HPC) 94 % of control | [8] 93 % of control

O=C(CNC(=O)OCc1ccccc1)NCC(=O)NC(CO)C(=O)O (centres undefined)
inactive: [11] 95 % of control | [12] 104 % of control | [14] 96 % of control

COC(=O)/C=C/CNC(C)C
inactive: endpoint: mean survival time, dose: 12.5 mg/kg/injection, schedule: Q01DX009 (ip), vehicle: water 93 % of control | endpoint: mean survival time, dose: 25.0 mg/kg/injection, schedule: Q01DX009 (ip), vehicle: water 95 % of control | endpoint: mean survival time, dose: 50.0 mg/kg/injection, schedule: Q01DX009 (ip), vehicle: water 96 % of control | endpoint: mean survival time, dose: 100.0 mg/kg/injection, schedule: Q01DX009 (ip), vehicle: water 96 % of control | endpoint: mean survival time, dose: 200.0 mg/kg/injection, schedule: Q01DX009 (ip), vehicle: water 101 % of control

CNC(=O)CCl
inactive: endpoint: mean survival time, dose: 25.0 mg/kg/injection, schedule: Q01DX009 (ip), vehicle: saline 103 % of control | endpoint: mean survival time, dose: 50.0 mg/kg/injection, schedule: Q01DX009 (ip), vehicle: saline 105 % of control | endpoint: mean survival time, dose: 100.0 mg/kg/injection, schedule: Q01DX009 (ip), vehicle: saline 104 % of control

CC1=COC2CCCCC2O1 (centres undefined) (tested in a mixture with another compound)
inactive: [16] 95 % of control | [17] 97 % of control | [13] 91 % of control

O=c1[nH]n(Cc2ccccc2)c2ccccc12
inactive: endpoint: mean survival time, dose: 25.0 mg/kg/injection, schedule: Q04DX003 (ip), vehicle: Klucel (hydroxypropylcellulose) (HPC) 101 % of control | endpoint: mean survival time, dose: 50.0 mg/kg/injection, schedule: Q04DX003 (ip), vehicle: Klucel (hydroxypropylcellulose) (HPC) 106 % of control | [15] 106 % of control

Cn1c2ccccc2c(=O)c2ccc(Cl)cc21
inactive: [11] 95 % of control | [12] 96 % of control | [14] 96 % of control

From PubChem BioAssay AID256 (DTP/NCI, 2004)
